Data on one molecule can be found in PMC3668458 (Journal of neuroscience research, 2011).

The target in the assay is α4β2 nicotinic acetylcholine receptor (α4 subunit) (Homo sapiens, UniProt P17787+P43681). Nature of the assay: whole-cell patch clamp, Schild plot analysis of inhibition of ACh currents. It is filed as cell-based.
Chain of α4β2 nicotinic acetylcholine receptor (α4 subunit) (P43681 27-627): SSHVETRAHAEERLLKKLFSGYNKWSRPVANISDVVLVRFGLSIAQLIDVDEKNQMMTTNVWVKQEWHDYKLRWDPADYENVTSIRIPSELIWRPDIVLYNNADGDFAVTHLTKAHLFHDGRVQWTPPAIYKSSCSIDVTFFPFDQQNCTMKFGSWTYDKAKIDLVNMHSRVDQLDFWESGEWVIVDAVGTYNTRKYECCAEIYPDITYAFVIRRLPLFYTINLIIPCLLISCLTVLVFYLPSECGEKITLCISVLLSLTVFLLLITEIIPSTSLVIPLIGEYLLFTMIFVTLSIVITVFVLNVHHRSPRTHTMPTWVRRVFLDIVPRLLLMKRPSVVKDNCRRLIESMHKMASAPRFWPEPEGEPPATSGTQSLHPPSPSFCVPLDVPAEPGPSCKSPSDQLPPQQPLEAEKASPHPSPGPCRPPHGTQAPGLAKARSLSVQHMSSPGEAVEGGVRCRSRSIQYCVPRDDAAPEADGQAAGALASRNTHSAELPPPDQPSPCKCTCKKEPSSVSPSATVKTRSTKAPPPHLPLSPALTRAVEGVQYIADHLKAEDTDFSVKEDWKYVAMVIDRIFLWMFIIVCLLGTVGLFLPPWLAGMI
Chain of α4β2 nicotinic acetylcholine receptor (α4 subunit) (P17787 26-502): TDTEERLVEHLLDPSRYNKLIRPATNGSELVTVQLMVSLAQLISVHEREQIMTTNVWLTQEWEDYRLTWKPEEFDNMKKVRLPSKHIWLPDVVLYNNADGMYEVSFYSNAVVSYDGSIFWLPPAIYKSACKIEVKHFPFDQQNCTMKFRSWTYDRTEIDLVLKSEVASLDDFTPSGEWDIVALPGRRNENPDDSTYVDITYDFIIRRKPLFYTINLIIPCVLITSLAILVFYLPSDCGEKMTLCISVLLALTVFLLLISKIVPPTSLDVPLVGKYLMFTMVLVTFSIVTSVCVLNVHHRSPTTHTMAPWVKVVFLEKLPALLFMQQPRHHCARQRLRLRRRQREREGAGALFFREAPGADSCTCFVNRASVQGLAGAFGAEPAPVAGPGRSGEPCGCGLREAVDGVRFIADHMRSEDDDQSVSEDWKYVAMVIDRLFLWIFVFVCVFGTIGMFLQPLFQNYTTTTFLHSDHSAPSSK

For the molecule `O=[N+]([O-])NC1=NCCN1Cc1ccc(Cl)nc1` [IMI, imidacloprid], the Kb turned out to be 18.2 ± 0.9 µM.
